Results as given in ChEMBL document CHEMBL5233264, “Targeting MYC: From understanding its biology to drug discovery” (Eur J Med Chem, 2021).
Blank lines part the entries; values can stand above or below the compound they belong to.

How the values were obtained:
HepG2 = test: Anticancer activity against human HepG2 cells; format: functional, cell-based
4T1 = test: Anticancer activity against mouse 4T1 cells; format: functional, cell-based
Quadruplex DNA [1] = test: Binding affinity to MYC G4-quadruplex DNA (unknown origin) assessed as dissociation constant; format: nucleic-acid assay
Homo sapiens [2] = organism: Homo sapiens; test: Binding affinity to c-MYC promoter G4 sequences FmycT (unknown origin) assessed as change in melting temperature at 1 uM by high-throughput FRET melting assay
Homo sapiens [3] = organism: Homo sapiens; test: Binding affinity to human telomeric repeat F21T assessed as change in melting temperature at 1 uM by high-throughput FRET melting assay
Homo sapiens [4] = organism: Homo sapiens; test: Binding affinity to double-stranded DNA FdxT (unknown origin) assessed as change in melting temperature at 1 uM by high-throughput FRET melting assay
Calf thymus DNA = test: Binding affinity to calf thymus DNA sequence; format: nucleic-acid assay, Bos taurus
Quadruplex DNA [5] = test: Binding affinity to human MYC G4 DNA sequence; format: nucleic-acid assay
[6] = In vivo inhibition of BRD4 in human MV4-11 cells xenografted in mouse tumor model; format: functional, organism-based
HL-60 = test: Cytotoxicity against human HL-60 cells measured after 72 hrs by MTT assay; format: functional, cell-based; details: HL-60, 72 h
[7] = target: Bromodomain-containing protein 4 (Homo sapiens, UniProt O60885); test: Inhibition of BRD4 (unknown origin)
[8] = Growth inhibition of human Burkitts lymphoma cell; format: functional, cell-based
[9] = Binding affinity to MYC bHLH Zip (unknown origin) assessed as dissociation constant by microscale thermophoresis assay; parameters: species or system Homo sapiens

IC50 (HepG2): 4500 nM | IC50 (4T1): 3900 nM | Kd (Quadruplex DNA [1]): 2000 nM
SMILES: CN1CCN(c2ccc(-c3nc(-c4nc5ccccc5s4)[nH]c3-c3ccc(N4CCN(C)CC4)cc3)cc2)CC1

ΔTm (Homo sapiens [2]): 12 °C | ΔTm (Homo sapiens [3]): 17.3 °C | ΔTm (Homo sapiens [4]): 0 °C
SMILES: C[n+]1cc(NC(=O)c2ccc3ccc4ccc(C(=O)Nc5cc6ccccc6[n+](C)c5)nc4c3n2)cc2ccccc21

IC50 (HepG2): 6000 nM | Kd (Quadruplex DNA [5]): 200 nM
SMILES: CN(C)c1ccc2nc3ccc(N(C)C)cc3[s+]c2c1 [METHYLENE BLUE ANHYDROUS]
Kd (Calf thymus DNA): 200 nM

IC50 [6]: 120 nM
SMILES: Cc1noc2c1-c1ccccc1C(c1ccc(Cl)cc1)=N[C@H]2CC(N)=O [PELABRESIB]

IC50 (HepG2): 1000 nM | Kd (Quadruplex DNA [5]): 70 nM
SMILES: CN(CCc1ccc(Br)cc1)c1ccc2nc3ccc(N(C)CCc4ccc(Br)cc4)cc3[s+]c2c1
Kd (Calf thymus DNA): 11000 nM

SMILES: O=[N+]([O-])c1ccc(Nc2ccccc2-c2ccccc2)c2nonc12
IC50 (HL-60): 23000 nM

IC50 (4T1): 700 nM | Kd (Quadruplex DNA [1]): 1300 nM
SMILES: CN1CCN(c2ccc(-c3nc4cc(F)c(F)cc4nc3-c3ccc(N4CCN(C)CC4)cc3)cc2)CC1

SMILES: CCCCOC(=O)CCN1C(=O)S/C(=C\c2ccc(CC)cc2)C1=O
IC50 (HL-60): 5000 nM

ΔTm (Homo sapiens [2]): 3.6 °C | ΔTm (Homo sapiens [3]): 9.2 °C | ΔTm (Homo sapiens [4]): 9.2 °C
SMILES: c1cc2ccc3ccc4nc3c2nc1CNCCCCCCCNC4

IC50 [7]: 3 nM
SMILES: CCS(=O)(=O)Nc1ccc(Oc2ccc(F)cc2F)c(-c2cn(C)c(=O)c3[nH]ccc23)c1 [MIVEBRESIB]

SMILES: COC(=O)c1ccc(Nc2ccc([N+](=O)[O-])c3nonc23)c(-c2ccc(C)cc2)c1
IC50 (HL-60): 23000 nM

Kd (Quadruplex DNA [1]): 2000 nM
SMILES: O=c1oc2c3c4c(cc2cc1-c1nc2ccccc2s1)CCCN4CCC3

Kd [9]: 2000 nM
SMILES: CCOc1ccc2nc3cc(/N=N/c4ccc(N)cc4N)ccc3c(N)c2c1
IC50 [8]: 500 nM

IC50 [7]: 6470 nM
SMILES: Oc1ccc(Cl)c2cccnc12 [CLOXYQUIN]

IC50 [7]: 980 nM
SMILES: CCn1cc(C(=O)O)c(=O)c2cc(F)c(N3CCNCC3)cc21 [NORFLOXACIN]
